This is an account of results in ChEMBL document CHEMBL3991601, “The target landscape of clinical kinase drugs” (Science, 2017).

Calls of active or inactive are those of the source. Rule as the data show it, for most assays here: actives have a measured Kd and inactives only a lower limit.

Among the targets are Deoxycytidine kinase (Homo sapiens, UniProt P27707); Aurora kinase B (Homo sapiens, UniProt Q96GD4); Ephrin type-A receptor 7 (Homo sapiens, UniProt Q15375).
In assay [1] the target is T1, Cyclin-G-associated kinase (Homo sapiens, UniProt O14976).
T1 sequence (O14976 whole entry): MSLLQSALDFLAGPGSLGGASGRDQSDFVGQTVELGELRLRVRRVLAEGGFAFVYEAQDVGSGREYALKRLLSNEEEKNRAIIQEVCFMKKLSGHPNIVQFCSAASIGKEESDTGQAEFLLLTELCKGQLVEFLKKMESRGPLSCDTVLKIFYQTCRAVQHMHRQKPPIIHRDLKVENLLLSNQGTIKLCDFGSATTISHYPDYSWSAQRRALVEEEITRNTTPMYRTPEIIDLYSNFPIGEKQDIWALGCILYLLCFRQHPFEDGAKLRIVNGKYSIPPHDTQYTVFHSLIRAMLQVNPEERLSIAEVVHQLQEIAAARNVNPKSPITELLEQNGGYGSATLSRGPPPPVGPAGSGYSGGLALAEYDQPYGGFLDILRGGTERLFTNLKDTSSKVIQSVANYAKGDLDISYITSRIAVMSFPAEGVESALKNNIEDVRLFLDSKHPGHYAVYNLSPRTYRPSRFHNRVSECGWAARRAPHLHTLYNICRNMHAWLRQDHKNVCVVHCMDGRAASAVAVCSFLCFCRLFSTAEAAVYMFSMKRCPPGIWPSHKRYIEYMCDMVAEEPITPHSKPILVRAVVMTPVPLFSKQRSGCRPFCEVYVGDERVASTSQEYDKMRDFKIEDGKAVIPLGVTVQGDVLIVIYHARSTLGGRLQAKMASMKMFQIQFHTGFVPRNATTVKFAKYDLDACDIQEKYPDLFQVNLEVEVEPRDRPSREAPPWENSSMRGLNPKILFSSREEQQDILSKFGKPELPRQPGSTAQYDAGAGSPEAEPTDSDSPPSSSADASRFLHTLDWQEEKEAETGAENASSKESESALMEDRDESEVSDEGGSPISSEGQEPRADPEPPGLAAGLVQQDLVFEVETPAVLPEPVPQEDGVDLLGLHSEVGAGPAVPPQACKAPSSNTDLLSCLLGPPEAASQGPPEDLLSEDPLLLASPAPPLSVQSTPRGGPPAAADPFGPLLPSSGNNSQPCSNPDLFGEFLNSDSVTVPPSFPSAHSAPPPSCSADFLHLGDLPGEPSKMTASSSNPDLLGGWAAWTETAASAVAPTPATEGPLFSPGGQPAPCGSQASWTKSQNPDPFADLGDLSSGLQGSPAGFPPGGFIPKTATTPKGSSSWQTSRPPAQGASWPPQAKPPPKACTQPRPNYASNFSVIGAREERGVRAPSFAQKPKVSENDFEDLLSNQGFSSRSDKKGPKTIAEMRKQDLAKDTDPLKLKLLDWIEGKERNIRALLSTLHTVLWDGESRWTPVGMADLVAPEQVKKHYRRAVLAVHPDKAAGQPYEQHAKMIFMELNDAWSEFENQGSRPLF

Assay [2] has as its target NADH dehydrogenase [ubiquinone] 1 alpha subcomplex subunit 13 (Homo sapiens, UniProt Q9P0J0).
The target in assay [3] is Putative heat shock protein HSP 90-beta 2 (Homo sapiens, UniProt Q58FF8).
Assay [4] has as its target Serine/threonine-protein kinase MRCK beta (Homo sapiens, UniProt Q9Y5S2).
In assay [5] the target is RAC-alpha serine/threonine-protein kinase (Homo sapiens, UniProt P31749).
In assay [6] the target is Tyrosine-protein kinase SYK (Homo sapiens, UniProt P43405).
Assay [7] deals with T2, Dynamin-like GTPase OPA1, mitochondrial (Homo sapiens, UniProt O60313).
T2 sequence (O60313 whole entry): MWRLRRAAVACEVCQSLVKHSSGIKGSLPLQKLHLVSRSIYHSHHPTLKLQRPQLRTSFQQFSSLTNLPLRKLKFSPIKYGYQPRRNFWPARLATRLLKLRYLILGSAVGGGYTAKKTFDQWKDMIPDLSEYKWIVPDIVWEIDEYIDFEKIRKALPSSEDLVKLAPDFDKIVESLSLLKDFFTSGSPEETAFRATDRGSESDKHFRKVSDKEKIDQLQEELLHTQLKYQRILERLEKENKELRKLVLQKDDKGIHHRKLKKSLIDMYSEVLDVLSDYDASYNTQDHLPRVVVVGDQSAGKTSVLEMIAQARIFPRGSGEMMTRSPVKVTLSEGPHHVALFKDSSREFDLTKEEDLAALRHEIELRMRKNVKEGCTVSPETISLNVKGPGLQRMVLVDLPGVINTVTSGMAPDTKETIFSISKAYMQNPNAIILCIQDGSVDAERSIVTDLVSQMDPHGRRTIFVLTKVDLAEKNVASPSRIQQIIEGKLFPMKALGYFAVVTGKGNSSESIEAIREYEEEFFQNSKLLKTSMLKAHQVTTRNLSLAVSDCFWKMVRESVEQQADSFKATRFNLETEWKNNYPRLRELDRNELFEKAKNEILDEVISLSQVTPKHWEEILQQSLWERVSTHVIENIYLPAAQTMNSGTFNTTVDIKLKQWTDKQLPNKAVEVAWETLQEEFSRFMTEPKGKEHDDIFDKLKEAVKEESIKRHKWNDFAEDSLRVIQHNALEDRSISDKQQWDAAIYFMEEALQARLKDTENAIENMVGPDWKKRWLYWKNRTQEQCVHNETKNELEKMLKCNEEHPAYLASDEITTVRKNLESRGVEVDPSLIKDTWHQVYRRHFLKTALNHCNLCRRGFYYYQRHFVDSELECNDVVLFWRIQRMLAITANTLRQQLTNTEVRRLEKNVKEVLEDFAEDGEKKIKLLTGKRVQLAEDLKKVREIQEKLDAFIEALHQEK

Assay [8] has as its target Serine/threonine-protein kinase 26 (Homo sapiens, UniProt Q9P289).
In assay [9] the target is Receptor-interacting serine/threonine-protein kinase 3 (Homo sapiens, UniProt Q9Y572).
The target of assay [10] is Protein-tyrosine kinase 2-beta (Homo sapiens, UniProt Q14289).
The target in assay [11] is Mitotic checkpoint serine/threonine-protein kinase BUB1 (Homo sapiens, UniProt O43683).
Assay [12] deals with Tyrosine-protein kinase JAK1 (Homo sapiens, UniProt P23458).
Also: in the data inactive means no Kd found up to 30 µM.

Sequence of Deoxycytidine kinase (P27707 whole entry): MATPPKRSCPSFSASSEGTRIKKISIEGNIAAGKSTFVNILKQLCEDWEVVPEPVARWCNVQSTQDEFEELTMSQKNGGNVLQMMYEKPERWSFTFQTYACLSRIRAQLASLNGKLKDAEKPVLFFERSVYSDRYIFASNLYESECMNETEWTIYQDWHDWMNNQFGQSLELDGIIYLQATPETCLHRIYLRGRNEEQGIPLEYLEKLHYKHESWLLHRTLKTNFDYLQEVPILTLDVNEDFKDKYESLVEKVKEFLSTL
Sequence of Receptor-interacting serine/threonine-protein kinase 3 (Q9Y572 whole entry): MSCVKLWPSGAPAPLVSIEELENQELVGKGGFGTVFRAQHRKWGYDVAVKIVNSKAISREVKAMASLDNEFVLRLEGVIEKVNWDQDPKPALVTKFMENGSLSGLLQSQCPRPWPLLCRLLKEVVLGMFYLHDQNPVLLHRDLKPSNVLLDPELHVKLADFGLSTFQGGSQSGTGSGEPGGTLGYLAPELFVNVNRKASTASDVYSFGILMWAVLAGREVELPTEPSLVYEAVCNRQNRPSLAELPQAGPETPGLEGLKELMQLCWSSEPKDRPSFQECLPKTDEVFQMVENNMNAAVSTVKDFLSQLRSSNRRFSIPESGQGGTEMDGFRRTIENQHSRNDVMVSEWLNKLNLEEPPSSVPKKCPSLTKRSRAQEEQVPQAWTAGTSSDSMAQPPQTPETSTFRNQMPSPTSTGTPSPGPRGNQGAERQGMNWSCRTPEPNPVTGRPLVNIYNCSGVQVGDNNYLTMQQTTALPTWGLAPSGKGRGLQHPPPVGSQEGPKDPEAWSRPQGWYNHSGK
Sequence of RAC-alpha serine/threonine-protein kinase (P31749 whole entry): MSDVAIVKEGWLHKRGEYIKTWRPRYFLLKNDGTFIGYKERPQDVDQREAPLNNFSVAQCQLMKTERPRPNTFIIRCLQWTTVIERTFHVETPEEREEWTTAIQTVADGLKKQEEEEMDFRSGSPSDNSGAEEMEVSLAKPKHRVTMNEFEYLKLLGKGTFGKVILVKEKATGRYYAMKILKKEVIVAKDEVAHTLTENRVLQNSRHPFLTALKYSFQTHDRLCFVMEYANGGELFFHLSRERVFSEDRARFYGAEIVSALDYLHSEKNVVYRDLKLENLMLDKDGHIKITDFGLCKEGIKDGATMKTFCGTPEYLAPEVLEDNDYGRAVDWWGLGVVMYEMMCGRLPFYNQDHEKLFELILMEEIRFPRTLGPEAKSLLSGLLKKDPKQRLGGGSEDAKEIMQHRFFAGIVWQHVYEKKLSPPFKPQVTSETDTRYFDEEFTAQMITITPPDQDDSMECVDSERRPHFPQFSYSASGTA
Sequence of Tyrosine-protein kinase JAK1 (P23458 whole entry): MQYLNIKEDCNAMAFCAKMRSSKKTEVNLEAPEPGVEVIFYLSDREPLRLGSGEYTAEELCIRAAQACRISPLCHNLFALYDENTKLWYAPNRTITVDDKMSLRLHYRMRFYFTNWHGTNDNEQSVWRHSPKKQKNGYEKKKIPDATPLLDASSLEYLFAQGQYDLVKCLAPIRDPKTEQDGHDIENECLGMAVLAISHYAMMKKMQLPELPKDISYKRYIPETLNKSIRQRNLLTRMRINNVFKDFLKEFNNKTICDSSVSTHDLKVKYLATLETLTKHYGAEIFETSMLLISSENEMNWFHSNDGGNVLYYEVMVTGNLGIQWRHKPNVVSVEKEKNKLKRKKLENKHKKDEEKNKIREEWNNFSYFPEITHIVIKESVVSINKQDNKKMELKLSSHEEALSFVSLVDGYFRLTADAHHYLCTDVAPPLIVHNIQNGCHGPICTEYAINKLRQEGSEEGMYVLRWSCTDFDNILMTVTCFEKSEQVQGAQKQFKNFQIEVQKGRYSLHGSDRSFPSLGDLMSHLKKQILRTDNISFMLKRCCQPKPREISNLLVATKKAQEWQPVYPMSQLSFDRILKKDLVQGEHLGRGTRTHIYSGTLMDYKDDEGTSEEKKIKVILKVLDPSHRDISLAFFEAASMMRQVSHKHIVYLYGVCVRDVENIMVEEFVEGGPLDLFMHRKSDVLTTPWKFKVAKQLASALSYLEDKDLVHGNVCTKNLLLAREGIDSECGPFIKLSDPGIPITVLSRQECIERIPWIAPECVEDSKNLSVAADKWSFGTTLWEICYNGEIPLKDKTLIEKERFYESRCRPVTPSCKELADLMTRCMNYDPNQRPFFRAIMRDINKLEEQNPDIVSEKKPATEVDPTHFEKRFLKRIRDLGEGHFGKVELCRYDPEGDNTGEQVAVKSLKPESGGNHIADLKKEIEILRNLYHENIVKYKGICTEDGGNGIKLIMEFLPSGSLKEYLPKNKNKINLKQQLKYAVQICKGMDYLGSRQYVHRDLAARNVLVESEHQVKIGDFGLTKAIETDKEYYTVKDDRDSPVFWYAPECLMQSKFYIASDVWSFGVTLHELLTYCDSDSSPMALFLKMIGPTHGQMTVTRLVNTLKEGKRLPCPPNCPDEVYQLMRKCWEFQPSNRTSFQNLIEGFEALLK
Sequence of Ephrin type-A receptor 7 (Q15375 whole entry): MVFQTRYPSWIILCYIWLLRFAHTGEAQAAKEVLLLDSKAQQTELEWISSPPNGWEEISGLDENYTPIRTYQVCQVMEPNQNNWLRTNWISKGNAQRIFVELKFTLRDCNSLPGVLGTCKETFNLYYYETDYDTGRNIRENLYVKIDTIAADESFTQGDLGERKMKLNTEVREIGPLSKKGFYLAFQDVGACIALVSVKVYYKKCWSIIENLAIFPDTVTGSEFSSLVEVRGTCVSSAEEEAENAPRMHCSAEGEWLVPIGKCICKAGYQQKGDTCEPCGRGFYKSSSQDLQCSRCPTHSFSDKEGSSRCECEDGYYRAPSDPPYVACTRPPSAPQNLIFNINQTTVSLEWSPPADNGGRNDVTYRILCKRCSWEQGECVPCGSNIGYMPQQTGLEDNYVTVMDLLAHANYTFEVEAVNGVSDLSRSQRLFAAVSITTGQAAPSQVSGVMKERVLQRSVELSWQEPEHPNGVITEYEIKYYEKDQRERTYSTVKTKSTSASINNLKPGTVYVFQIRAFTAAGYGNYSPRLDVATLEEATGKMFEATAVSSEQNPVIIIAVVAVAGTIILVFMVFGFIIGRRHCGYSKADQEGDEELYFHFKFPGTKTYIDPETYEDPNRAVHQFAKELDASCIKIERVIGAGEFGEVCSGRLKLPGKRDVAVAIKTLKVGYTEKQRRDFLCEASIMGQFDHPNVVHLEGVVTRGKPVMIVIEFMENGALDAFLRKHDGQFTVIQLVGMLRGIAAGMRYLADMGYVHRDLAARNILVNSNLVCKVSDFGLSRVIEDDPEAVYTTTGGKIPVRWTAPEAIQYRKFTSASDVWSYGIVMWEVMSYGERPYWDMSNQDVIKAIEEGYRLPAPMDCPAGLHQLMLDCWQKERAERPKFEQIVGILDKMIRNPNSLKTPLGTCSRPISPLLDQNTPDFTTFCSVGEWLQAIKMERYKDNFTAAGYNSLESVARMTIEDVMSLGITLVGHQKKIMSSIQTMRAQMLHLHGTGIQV
Sequence of Protein-tyrosine kinase 2-beta (Q14289 whole entry): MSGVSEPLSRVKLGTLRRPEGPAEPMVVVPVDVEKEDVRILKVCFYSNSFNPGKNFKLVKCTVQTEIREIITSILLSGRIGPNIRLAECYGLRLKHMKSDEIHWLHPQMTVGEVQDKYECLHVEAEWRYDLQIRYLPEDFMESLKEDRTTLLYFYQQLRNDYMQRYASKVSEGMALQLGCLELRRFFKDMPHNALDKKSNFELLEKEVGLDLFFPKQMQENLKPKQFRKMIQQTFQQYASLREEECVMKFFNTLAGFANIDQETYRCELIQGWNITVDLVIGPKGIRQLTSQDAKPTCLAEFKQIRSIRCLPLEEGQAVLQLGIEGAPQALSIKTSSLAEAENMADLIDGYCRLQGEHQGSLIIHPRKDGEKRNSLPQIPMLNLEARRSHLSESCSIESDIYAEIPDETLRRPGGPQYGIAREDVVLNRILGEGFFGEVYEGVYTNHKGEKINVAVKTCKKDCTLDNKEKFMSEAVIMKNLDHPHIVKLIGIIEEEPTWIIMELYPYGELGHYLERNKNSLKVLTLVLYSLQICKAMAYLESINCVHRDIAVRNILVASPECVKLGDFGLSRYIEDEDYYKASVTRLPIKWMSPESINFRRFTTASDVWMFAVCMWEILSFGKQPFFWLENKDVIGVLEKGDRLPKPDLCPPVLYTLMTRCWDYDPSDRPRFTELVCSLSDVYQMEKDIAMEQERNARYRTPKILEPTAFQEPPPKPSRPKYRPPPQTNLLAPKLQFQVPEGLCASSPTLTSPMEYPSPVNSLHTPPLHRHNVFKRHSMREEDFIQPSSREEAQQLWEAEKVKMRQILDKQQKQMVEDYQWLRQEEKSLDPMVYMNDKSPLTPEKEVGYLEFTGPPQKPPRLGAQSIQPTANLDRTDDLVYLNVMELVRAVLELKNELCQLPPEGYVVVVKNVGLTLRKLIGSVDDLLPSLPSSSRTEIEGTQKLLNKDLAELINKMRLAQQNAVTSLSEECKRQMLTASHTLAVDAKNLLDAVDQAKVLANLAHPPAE
Sequence of Putative heat shock protein HSP 90-beta 2 (Q58FF8 whole entry): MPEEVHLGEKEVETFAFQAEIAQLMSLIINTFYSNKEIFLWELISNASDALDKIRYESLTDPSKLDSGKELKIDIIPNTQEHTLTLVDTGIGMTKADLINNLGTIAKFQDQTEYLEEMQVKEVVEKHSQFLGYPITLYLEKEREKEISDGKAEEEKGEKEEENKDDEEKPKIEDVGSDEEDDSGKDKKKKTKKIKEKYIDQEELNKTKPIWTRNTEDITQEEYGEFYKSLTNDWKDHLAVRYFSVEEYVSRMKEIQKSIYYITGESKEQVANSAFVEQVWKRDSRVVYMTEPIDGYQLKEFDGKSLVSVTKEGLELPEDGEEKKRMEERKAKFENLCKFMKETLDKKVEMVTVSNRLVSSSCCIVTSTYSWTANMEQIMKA
Sequence of NADH dehydrogenase [ubiquinone] 1 alpha subcomplex subunit 13 (Q9P0J0 whole entry, one chain of several): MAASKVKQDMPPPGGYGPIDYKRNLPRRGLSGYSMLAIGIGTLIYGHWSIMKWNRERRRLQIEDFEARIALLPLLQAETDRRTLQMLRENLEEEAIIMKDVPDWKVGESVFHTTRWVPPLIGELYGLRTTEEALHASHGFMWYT

Take `COc1cc2ncnc(Nc3ccc(O)cc3)c2cc1OC` [WHI-P131]: the Kd – broadly, the equilibrium constant for the complex coming apart – was > 30 µM (inactive) on Deoxycytidine kinase; 28.7 µM (active) in assay [1]; > 30 µM (inactive) in assay [2]; > 30 µM (inactive) at Aurora kinase B; > 30 µM (inactive) in [3]; > 30 µM (inactive) in [4]. The Kd in [5], in [6], in [7], in assay [8], in [9] and in assay [10] was > 30 µM (inactive) in each case. For the same compound, the Kd (at Ephrin type-A receptor 7; in assay [11]; in assay [12]) was > 30 µM (inactive) throughout.
Regarding `O=C(Nc1ccc(OC(F)(F)F)cc1)c1sccc1NCc1ccnc2ccccc12` [OSI-930], the Kd (on Deoxycytidine kinase; in [1]; in assay [2]; at Aurora kinase B; in assay [3]; in [4]) was > 30 µM (inactive) each time. Besides, the Kd is > 30 µM (inactive) in [5]; > 30 µM (inactive) in [6]; > 30 µM (inactive) in assay [7]; > 30 µM (inactive) in assay [8]; 1.7 µM (active) in assay [9]; > 30 µM (inactive) in [10]. Also, the Kd (on Ephrin type-A receptor 7; in [11]; in assay [12]) was > 30 µM (inactive) throughout.
As to `CNC(=O)c1ccc(Nc2ncc(C(F)(F)F)c(NCc3nccnc3N(C)S(C)(=O)=O)n2)cc1` [DEFACTINIB], the Kd on Deoxycytidine kinase was > 30 µM (inactive); in [1] it was > 30 µM (inactive); in [2] it was > 30 µM (inactive); on Aurora kinase B, 1.46 µM (active); in assay [3] it was > 30 µM (inactive); in assay [4], > 30 µM (inactive). The Kd was > 30 µM (inactive) in assay [5]; > 30 µM (inactive) in assay [6]; > 30 µM (inactive) in assay [7]; > 30 µM (inactive) in assay [8]; > 30 µM (inactive) in [9]; 0.423 µM (active) in assay [10]. The Kd (on Ephrin type-A receptor 7; in [11]; in assay [12]) was > 30 µM (inactive) throughout.
For `CC[C@@](C)(Nc1ccnc(-c2c[nH]c3ncccc23)n1)C(=O)NCC(F)(F)F` [DECERNOTINIB], the Kd at Deoxycytidine kinase is > 30 µM (inactive); in [1], > 30 µM (inactive); in assay [2] it was > 30 µM (inactive); on Aurora kinase B it was > 30 µM (inactive); in assay [3], > 30 µM (inactive); in assay [4] it was 0.116 µM (active). Moreover, the Kd in [5] is > 30 µM (inactive); in [6] it was > 30 µM (inactive); in assay [7], > 30 µM (inactive); in assay [8] it was 1.14 µM (active); in assay [9], > 30 µM (inactive); in assay [10], > 30 µM (inactive). Moreover, the Kd (at Ephrin type-A receptor 7; in assay [11]; in [12]) was > 30 µM (inactive) each time.
`O=S(=O)(c1cccc2c(O)nccc12)N1CCCNCC1` [HYDROXYFASUDIL]: the Kd (on Deoxycytidine kinase; in assay [1]; in assay [2]; on Aurora kinase B; in [3]; in assay [4]) was > 30 µM (inactive) each time. Also, the Kd in assay [5], in [6], in assay [7], in [8], in assay [9] and in assay [10] was > 30 µM (inactive) throughout. Besides, the Kd (on Ephrin type-A receptor 7; in [11]; in assay [12]) was > 30 µM (inactive) each time.
For the compound `CN1CCN(c2nc(C3=C(c4c[nH]c5ccccc45)C(=O)NC3=O)c3ccccc3n2)CC1` [SOTRASTAURIN], the Kd (on Deoxycytidine kinase; in [1]; in assay [2]; on Aurora kinase B; in assay [3]; in assay [4]) was > 30 µM (inactive) throughout. In addition, the Kd in assay [5], in assay [6], in [7], in assay [8], in assay [9] and in [10] was > 30 µM (inactive) throughout. Moreover, the Kd (at Ephrin type-A receptor 7; in assay [11]; in [12]) was > 30 µM (inactive) throughout.
As for `C[C@@H]1COC(Nc2ccc3ncnc(Nc4ccc(OCc5nccs5)c(Cl)c4)c3c2)=N1` [VARLITINIB], the Kd (at Deoxycytidine kinase; in assay [1]; in assay [2]; at Aurora kinase B; in assay [3]; in [4]) was > 30 µM (inactive) in each case. For the same compound, the Kd in assay [5] is > 30 µM (inactive); in [6], > 30 µM (inactive); in assay [7] it was > 30 µM (inactive); in assay [8], > 30 µM (inactive); in assay [9], 0.088 µM (active); in assay [10], > 30 µM (inactive). The Kd (on Ephrin type-A receptor 7; in assay [11]; in assay [12]) was > 30 µM (inactive) throughout.
